From paper PMC8885417, “Pharmacological targeting of MTHFD2 suppresses acute myeloid leukemia by inducing thymidine depletion and replication stress” (Nature Cancer, 2022)
One block for each compound: values may come before it.

What was measured:
[1] = target: T1, Glucocorticoid (Homo sapiens, UniProt P04150); experiment: biochemical; design: Eurofins SafetyScreen44 panel of binding and enzyme assays, mean per cent inhibition of duplicate; conditions: read-out: Inhibition (%) at 10 µM TH9619
T1 construct: gene NR3C1
Excerpt: (§1) Bars represent the mean change in protein melting temperature (ΔTm) of one experiment performed in triplicate. […] Bars represent mean inhibition in percentage of one experiment performed in duplicate.

[2] = target: T2, Monoamine Oxidase MAO-A (Homo sapiens, UniProt P21397); experiment: biochemical; design: Eurofins SafetyScreen44 panel of binding and enzyme assays, mean per cent inhibition of duplicate; conditions: read-out: Inhibition (%) at 10 µM TH9619
T2 construct: gene MAOA
Excerpt: as §1

[3] = target: T3, Muscarinic M3 (Homo sapiens, UniProt P20309); experiment: biochemical; design: Eurofins SafetyScreen44 panel of binding and enzyme assays, mean per cent inhibition of duplicate; conditions: read-out: Inhibition (%) at 10 µM TH9619
T3 construct: gene CHRM3
Excerpt: as §1

[4] = target: T4, Cyclooxygenase COX-1 (Homo sapiens, UniProt P23219); experiment: biochemical; design: Eurofins SafetyScreen44 panel of binding and enzyme assays, mean per cent inhibition of duplicate; conditions: read-out: Inhibition (%) at 10 µM TH9619
T4 construct: gene PTGS1
Excerpt: as §1

[5] = target: T5, Dopamine D2S (Homo sapiens, UniProt P14416); experiment: biochemical; design: Eurofins SafetyScreen44 panel of binding and enzyme assays, mean per cent inhibition of duplicate; conditions: read-out: Inhibition (%) at 10 µM TH9619
T5 construct: gene DRD2; isoform D2S (short)
Excerpt: as §1

[6] = target: T6, Dopamine D1 (Homo sapiens, UniProt P21728); experiment: biochemical; design: Eurofins SafetyScreen44 panel of binding and enzyme assays, mean per cent inhibition of duplicate; conditions: read-out: Inhibition (%) at 10 µM TH9619
T6 construct: gene DRD1
Excerpt: as §1

[7] = target: T7, Cyclooxygenase COX-2 (Homo sapiens, UniProt P35354); experiment: biochemical; design: Eurofins SafetyScreen44 panel of binding and enzyme assays, mean per cent inhibition of duplicate; conditions: read-out: Inhibition (%) at 10 µM TH9619
T7 construct: gene PTGS2
Excerpt: as §1

[8] = target: T8, Adrenergic ß1 (Homo sapiens, UniProt P08588); experiment: biochemical; design: Eurofins SafetyScreen44 panel of binding and enzyme assays, mean per cent inhibition of duplicate; conditions: read-out: Inhibition (%) at 10 µM TH9619
T8 construct: gene ADRB1
Excerpt: as §1

[9] = target: T9, Androgen (Testosterone) (Homo sapiens, UniProt P10275); experiment: biochemical; design: Eurofins SafetyScreen44 panel of binding and enzyme assays, mean per cent inhibition of duplicate; conditions: read-out: Inhibition (%) at 10 µM TH9619
T9 construct: gene AR
Excerpt: as §1

[10] = target: T10, Transporter, Norepinephrine (NET) (Homo sapiens, UniProt P23975); experiment: biochemical; design: Eurofins SafetyScreen44 panel of binding and enzyme assays, mean per cent inhibition of duplicate; conditions: read-out: Inhibition (%) at 10 µM TH9619
T10 construct: gene SLC6A2
Excerpt: as §1

[11] = target: T11, Cannabinoid CB1 (Homo sapiens, UniProt P21554); experiment: biochemical; design: Eurofins SafetyScreen44 panel of binding and enzyme assays, mean per cent inhibition of duplicate; conditions: read-out: Inhibition (%) at 10 µM TH9619
T11 construct: gene CNR1
Excerpt: as §1

[12] = target: T12, Serotonin (5-Hydroxytryptamine) 5-HT1B (Homo sapiens, UniProt P28222); experiment: biochemical; design: Eurofins SafetyScreen44 panel of binding and enzyme assays, mean per cent inhibition of duplicate; conditions: read-out: Inhibition (%) at 10 µM TH9619
T12 construct: gene HTR1B
Excerpt: as §1

[13] = target: Phosphodiesterase PDE3A (Homo sapiens, UniProt Q14432); experiment: biochemical; design: Eurofins SafetyScreen44 panel of binding and enzyme assays, mean per cent inhibition of duplicate; conditions: read-out: Inhibition (%) at 10 µM TH9619
Excerpt: as §1

[14] = target: Protein Tyrosine Kinase, LCK (Homo sapiens, UniProt P06239); experiment: biochemical; design: Eurofins SafetyScreen44 panel of binding and enzyme assays, mean per cent inhibition of duplicate; conditions: read-out: Inhibition (%) at 10 µM TH9619
Excerpt: as §1

[15] = target: T13, Muscarinic M2 (Homo sapiens, UniProt P08172); experiment: biochemical; design: Eurofins SafetyScreen44 panel of binding and enzyme assays, mean per cent inhibition of duplicate; conditions: read-out: Inhibition (%) at 10 µM TH9619
T13 construct: gene CHRM2
Excerpt: as §1

[16] = target: T14, Histamine H1 (Homo sapiens, UniProt P35367); experiment: biochemical; design: Eurofins SafetyScreen44 panel of binding and enzyme assays, mean per cent inhibition of duplicate; conditions: read-out: Inhibition (%) at 10 µM TH9619
T14 construct: gene HRH1
Excerpt: as §1

[17] = target: T15, Phosphodiesterase PDE4D2 (Homo sapiens, UniProt Q08499); experiment: biochemical; design: Eurofins SafetyScreen44 panel of binding and enzyme assays, mean per cent inhibition of duplicate; conditions: read-out: Inhibition (%) at 10 µM TH9619
T15 construct: gene PDE4D; isoform PDE4D2
Excerpt: as §1

[18] = target: T16, Vasopressin V1A (Homo sapiens, UniProt P37288); experiment: biochemical; design: Eurofins SafetyScreen44 panel of binding and enzyme assays, mean per cent inhibition of duplicate; conditions: read-out: Inhibition (%) at 10 µM TH9619
T16 construct: gene AVPR1A
Excerpt: as §1

[19] = target: T17, Adenosine A2A (Homo sapiens, UniProt P29274); experiment: biochemical; design: Eurofins SafetyScreen44 panel of binding and enzyme assays, mean per cent inhibition of duplicate; conditions: read-out: Inhibition (%) at 10 µM TH9619
T17 construct: gene ADORA2A
Excerpt: as §1

[20] = target: T18, Serotonin (5-Hydroxytryptamine) 5-HT2B (Homo sapiens, UniProt P41595); experiment: biochemical; design: Eurofins SafetyScreen44 panel of binding and enzyme assays, mean per cent inhibition of duplicate; conditions: read-out: Inhibition (%) at 10 µM TH9619
T18 construct: gene HTR2B
Excerpt: as §1

[21] = target: T19, Muscarinic M1 (Homo sapiens, UniProt P11229); experiment: biochemical; design: Eurofins SafetyScreen44 panel of binding and enzyme assays, mean per cent inhibition of duplicate; conditions: read-out: Inhibition (%) at 10 µM TH9619
T19 construct: gene CHRM1
Excerpt: as §1

[22] = target: T20, Adrenergic ß2 (Homo sapiens, UniProt P07550); experiment: biochemical; design: Eurofins SafetyScreen44 panel of binding and enzyme assays, mean per cent inhibition of duplicate; conditions: read-out: Inhibition (%) at 10 µM TH9619
T20 construct: gene ADRB2
Excerpt: as §1

[23] = target: T21, Potassium Channel hERG, [3H]Dofetilide (Homo sapiens, UniProt Q12809); experiment: in vitro; design: Eurofins SafetyScreen44 panel of binding and enzyme assays, mean per cent inhibition of duplicate
T21 construct: gene KCNH2; dofetilide site
Excerpt: as §1

[24] = target: T22, Adrenergic α1A (Homo sapiens, UniProt P35348); experiment: biochemical; design: Eurofins SafetyScreen44 panel of binding and enzyme assays, mean per cent inhibition of duplicate; conditions: read-out: Inhibition (%) at 10 µM TH9619
T22 construct: gene ADRA1A
Excerpt: as §1

[25] = target: T23, Opiate κ (OP2, KOP) (Homo sapiens, UniProt P41145); experiment: biochemical; design: Eurofins SafetyScreen44 panel of binding and enzyme assays, mean per cent inhibition of duplicate; conditions: read-out: Inhibition (%) at 10 µM TH9619
T23 construct: gene OPRK1
Excerpt: as §1

[26] = target: T24, Histamine H2 (Homo sapiens, UniProt P25021); experiment: biochemical; design: Eurofins SafetyScreen44 panel of binding and enzyme assays, mean per cent inhibition of duplicate; conditions: read-out: Inhibition (%) at 10 µM TH9619
T24 construct: gene HRH2
Excerpt: as §1

[27] = target: T25, Nicotinic Acetylcholine a4ß2, Cytisine (Homo sapiens, UniProt P17787+P43681); experiment: biochemical; design: Eurofins SafetyScreen44 panel of binding and enzyme assays, mean per cent inhibition of duplicate; conditions: read-out: Inhibition (%) at 10 µM TH9619
T25 construct: gene CHRNB2; cytisine site
Excerpt: as §1

[28] = target: T26, Opiate µ (OP3, MOP) (Homo sapiens, UniProt P35372); experiment: biochemical; design: Eurofins SafetyScreen44 panel of binding and enzyme assays, mean per cent inhibition of duplicate; conditions: read-out: Inhibition (%) at 10 µM TH9619
T26 construct: gene OPRM1
Excerpt: as §1

[29] = target: T27, Cholinesterase,Acetyl, ACES (Homo sapiens, UniProt P22303); experiment: biochemical; design: Eurofins SafetyScreen44 panel of binding and enzyme assays, mean per cent inhibition of duplicate; conditions: read-out: Inhibition (%) at 10 µM TH9619
T27 construct: gene ACHE
Excerpt: as §1

[30] = target: T28, Adrenergic α2A (Homo sapiens, UniProt P08913); experiment: biochemical; design: Eurofins SafetyScreen44 panel of binding and enzyme assays, mean per cent inhibition of duplicate; conditions: read-out: Inhibition (%) at 10 µM TH9619
T28 construct: gene ADRA2A
Excerpt: as §1

[31] = target: T29, Serotonin (5-Hydroxytryptamine) 5-HT3 (Homo sapiens, UniProt P46098); experiment: biochemical; design: Eurofins SafetyScreen44 panel of binding and enzyme assays, mean per cent inhibition of duplicate; conditions: read-out: Inhibition (%) at 10 µM TH9619
T29 construct: gene HTR3A
Excerpt: as §1

[32] = target: T30, Transporter, Dopamine (DAT) (Homo sapiens, UniProt Q01959); experiment: biochemical; design: Eurofins SafetyScreen44 panel of binding and enzyme assays, mean per cent inhibition of duplicate; conditions: read-out: Inhibition (%) at 10 µM TH9619
T30 construct: gene SLC6A3
Excerpt: as §1

[33] = target: T31, Endothelin ETA (Homo sapiens, UniProt P25101); experiment: biochemical; design: Eurofins SafetyScreen44 panel of binding and enzyme assays, mean per cent inhibition of duplicate; conditions: read-out: Inhibition (%) at 10 µM TH9619
T31 construct: gene EDNRA
Excerpt: as §1

[34] = target: T32, Cannabinoid CB2 (Homo sapiens, UniProt P34972); experiment: biochemical; design: Eurofins SafetyScreen44 panel of binding and enzyme assays, mean per cent inhibition of duplicate; conditions: read-out: Inhibition (%) at 10 µM TH9619
T32 construct: gene CNR2
Excerpt: as §1

[35] = target: T33, Cholecystokinin CCK1 (CCKA) (Homo sapiens, UniProt P32238); experiment: biochemical; design: Eurofins SafetyScreen44 panel of binding and enzyme assays, mean per cent inhibition of duplicate; conditions: read-out: Inhibition (%) at 10 µM TH9619
T33 construct: gene CCKAR
Excerpt: as §1

[36] = target: T34, Serotonin (5-Hydroxytryptamine) 5-HT1A (Homo sapiens, UniProt P08908); experiment: biochemical; design: Eurofins SafetyScreen44 panel of binding and enzyme assays, mean per cent inhibition of duplicate; conditions: read-out: Inhibition (%) at 10 µM TH9619
T34 construct: gene HTR1A
Excerpt: as §1

[37] = target: T35, Transporter, Serotonin (5-Hydroxytryptamine) (SERT) (Homo sapiens, UniProt P31645); experiment: biochemical; design: Eurofins SafetyScreen44 panel of binding and enzyme assays, mean per cent inhibition of duplicate; conditions: read-out: Inhibition (%) at 10 µM TH9619
T35 construct: gene SLC6A4
Excerpt: as §1

[38] = target: T36, MTHFD1-(DC) (Homo sapiens, UniProt P11586); experiment: biochemical activity assay
T36 construct: dehydrogenase/cyclohydrolase (DC) domain
T36 sequence (P11586 2-306 limits assumed): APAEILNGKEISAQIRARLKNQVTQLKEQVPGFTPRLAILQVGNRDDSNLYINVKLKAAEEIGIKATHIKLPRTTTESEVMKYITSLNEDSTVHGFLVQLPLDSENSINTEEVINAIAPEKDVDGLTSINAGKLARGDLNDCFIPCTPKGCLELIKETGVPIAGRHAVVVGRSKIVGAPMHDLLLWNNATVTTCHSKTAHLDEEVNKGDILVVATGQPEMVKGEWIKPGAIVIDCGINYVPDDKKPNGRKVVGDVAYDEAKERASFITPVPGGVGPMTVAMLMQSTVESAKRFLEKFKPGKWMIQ

T9 sequence (P10275 whole entry): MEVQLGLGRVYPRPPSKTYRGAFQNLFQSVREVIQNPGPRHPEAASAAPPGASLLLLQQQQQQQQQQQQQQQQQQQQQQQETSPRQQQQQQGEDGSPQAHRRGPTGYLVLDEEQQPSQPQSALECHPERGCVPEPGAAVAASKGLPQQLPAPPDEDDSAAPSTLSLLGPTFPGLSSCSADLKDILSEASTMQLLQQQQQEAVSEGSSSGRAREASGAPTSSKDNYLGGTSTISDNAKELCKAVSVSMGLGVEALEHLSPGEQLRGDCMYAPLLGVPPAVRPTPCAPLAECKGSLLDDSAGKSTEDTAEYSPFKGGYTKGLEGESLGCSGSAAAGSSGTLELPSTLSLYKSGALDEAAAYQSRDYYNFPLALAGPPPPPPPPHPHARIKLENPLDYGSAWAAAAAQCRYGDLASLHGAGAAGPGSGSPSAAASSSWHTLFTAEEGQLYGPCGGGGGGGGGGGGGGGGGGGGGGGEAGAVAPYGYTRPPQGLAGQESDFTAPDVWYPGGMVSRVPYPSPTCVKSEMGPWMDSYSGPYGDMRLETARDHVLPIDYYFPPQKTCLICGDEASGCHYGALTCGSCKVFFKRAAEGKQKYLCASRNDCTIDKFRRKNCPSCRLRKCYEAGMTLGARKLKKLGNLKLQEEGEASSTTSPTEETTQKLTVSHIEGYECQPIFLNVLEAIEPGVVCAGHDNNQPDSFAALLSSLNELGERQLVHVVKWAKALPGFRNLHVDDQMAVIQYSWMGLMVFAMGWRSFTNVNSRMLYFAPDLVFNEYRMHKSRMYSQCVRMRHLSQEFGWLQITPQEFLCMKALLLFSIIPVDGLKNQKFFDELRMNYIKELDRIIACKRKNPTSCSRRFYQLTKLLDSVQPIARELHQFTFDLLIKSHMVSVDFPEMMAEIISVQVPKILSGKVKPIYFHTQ
T12 sequence (P28222 whole entry): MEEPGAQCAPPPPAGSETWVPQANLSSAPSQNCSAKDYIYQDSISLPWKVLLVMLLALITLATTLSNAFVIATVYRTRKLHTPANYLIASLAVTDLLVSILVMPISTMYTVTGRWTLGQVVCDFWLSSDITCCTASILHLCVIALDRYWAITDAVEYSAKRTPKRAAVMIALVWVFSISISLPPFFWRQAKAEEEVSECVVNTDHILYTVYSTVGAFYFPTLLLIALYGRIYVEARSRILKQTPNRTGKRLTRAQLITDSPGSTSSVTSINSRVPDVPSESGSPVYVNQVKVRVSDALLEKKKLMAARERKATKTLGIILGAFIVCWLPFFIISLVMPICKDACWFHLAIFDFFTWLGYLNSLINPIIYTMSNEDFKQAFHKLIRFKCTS
T28 sequence (P08913 whole entry): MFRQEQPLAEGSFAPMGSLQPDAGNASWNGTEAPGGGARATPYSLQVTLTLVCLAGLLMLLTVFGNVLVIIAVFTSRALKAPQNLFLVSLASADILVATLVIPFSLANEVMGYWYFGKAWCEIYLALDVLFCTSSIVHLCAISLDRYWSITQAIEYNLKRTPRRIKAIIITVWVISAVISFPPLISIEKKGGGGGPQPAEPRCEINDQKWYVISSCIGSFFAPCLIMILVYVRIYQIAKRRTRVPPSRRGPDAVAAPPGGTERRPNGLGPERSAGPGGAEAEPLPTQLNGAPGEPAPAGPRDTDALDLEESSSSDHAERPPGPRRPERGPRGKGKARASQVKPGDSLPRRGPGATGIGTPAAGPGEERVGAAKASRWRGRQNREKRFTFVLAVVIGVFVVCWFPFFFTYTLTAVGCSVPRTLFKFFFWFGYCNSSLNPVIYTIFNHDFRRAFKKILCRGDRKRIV
T29 sequence (P46098 whole entry): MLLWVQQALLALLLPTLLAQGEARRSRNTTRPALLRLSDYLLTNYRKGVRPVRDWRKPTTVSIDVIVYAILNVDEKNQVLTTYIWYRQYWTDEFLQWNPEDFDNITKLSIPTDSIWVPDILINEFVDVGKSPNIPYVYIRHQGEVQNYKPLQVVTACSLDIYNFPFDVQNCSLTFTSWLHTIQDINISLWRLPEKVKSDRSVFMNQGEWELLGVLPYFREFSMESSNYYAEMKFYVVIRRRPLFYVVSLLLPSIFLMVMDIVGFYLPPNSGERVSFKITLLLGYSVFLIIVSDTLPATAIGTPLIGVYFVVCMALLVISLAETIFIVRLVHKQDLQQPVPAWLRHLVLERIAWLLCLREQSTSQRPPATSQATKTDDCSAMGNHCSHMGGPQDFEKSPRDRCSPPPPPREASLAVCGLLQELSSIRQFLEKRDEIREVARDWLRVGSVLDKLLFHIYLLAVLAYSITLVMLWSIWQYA
T33 sequence (P32238 whole entry): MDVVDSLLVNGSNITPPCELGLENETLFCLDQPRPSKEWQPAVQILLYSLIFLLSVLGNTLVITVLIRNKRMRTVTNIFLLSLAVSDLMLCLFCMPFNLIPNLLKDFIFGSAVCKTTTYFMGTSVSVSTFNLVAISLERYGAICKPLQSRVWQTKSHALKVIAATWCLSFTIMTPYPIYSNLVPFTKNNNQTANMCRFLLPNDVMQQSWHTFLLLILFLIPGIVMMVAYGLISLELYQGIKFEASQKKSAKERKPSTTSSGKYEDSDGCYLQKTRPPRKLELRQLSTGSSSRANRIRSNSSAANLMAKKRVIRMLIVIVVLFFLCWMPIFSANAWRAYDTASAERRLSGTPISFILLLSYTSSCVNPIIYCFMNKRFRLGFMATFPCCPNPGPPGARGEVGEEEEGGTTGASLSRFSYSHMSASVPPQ
T10 sequence (P23975 whole entry): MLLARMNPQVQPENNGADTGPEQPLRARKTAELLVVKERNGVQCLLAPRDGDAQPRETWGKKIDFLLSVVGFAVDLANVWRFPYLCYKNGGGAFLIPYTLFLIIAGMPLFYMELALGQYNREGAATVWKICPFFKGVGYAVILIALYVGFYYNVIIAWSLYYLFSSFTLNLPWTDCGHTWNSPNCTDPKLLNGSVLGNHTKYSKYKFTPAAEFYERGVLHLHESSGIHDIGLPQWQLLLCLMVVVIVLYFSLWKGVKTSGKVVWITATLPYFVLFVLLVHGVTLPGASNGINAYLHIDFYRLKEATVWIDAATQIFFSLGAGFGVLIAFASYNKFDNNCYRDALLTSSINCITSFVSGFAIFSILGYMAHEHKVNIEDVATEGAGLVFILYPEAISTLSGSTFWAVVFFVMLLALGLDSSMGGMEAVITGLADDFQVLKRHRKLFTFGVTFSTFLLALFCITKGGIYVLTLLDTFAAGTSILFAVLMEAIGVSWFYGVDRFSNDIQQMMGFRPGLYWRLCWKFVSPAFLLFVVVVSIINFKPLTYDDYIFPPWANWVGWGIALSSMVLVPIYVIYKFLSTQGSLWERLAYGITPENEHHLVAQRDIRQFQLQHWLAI
T23 sequence (P41145 whole entry): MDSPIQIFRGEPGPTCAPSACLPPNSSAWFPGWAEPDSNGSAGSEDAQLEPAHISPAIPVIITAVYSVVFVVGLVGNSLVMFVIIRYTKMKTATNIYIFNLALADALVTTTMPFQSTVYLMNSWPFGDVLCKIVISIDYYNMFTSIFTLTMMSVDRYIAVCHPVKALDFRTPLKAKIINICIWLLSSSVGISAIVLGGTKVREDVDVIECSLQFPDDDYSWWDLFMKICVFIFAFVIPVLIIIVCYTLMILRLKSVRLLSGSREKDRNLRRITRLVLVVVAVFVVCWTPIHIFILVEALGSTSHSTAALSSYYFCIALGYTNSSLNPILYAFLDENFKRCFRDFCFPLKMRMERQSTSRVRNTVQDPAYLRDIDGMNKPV
T4 sequence (P23219 whole entry): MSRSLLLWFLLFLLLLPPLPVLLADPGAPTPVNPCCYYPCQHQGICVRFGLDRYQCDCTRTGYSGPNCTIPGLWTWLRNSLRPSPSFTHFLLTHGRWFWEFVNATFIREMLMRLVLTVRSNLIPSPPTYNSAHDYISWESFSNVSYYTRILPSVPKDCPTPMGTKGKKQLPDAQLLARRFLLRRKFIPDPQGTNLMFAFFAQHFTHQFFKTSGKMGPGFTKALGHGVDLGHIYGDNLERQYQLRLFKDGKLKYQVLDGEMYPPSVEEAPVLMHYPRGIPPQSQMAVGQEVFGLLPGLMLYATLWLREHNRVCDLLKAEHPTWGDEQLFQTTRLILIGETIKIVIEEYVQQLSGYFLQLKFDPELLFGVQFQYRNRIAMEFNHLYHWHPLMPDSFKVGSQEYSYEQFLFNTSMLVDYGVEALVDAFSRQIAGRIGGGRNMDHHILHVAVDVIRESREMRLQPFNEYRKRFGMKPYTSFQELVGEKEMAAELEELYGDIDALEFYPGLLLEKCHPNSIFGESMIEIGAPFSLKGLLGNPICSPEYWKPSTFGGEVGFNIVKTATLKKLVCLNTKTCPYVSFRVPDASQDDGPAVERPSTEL
T32 sequence (P34972 whole entry): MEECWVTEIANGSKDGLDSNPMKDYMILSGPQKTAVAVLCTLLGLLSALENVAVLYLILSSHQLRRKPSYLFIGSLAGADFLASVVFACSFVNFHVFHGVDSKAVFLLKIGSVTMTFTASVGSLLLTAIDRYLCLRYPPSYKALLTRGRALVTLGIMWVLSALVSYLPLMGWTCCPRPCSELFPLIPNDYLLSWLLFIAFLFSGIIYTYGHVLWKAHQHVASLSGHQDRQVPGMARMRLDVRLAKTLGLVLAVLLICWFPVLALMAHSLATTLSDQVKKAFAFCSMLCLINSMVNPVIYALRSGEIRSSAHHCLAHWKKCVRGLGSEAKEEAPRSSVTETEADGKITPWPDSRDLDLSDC

Compound: Nc1nc(N)c(CC(=O)Nc2cnc(C(=O)N[C@@H](CCC(=O)O)C(=O)O)c(F)c2)c(=O)[nH]1 [TH9619]
inhibition at 10 µM [1]: 3%
inhibition at 10 µM [2]: 6%
inhibition at 10 µM [3]: -2%
inhibition at 10 µM [4]: 9%
inhibition at 10 µM [5]: 1%
inhibition at 10 µM [6]: 5%
inhibition at 10 µM [7]: 16%
inhibition at 10 µM [8]: 0%
inhibition at 10 µM [9]: 3%
inhibition at 10 µM [10]: -12%
inhibition at 10 µM [11]: 0%
inhibition at 10 µM [12]: -8%
inhibition at 10 µM [13]: -3%
inhibition at 10 µM [14]: 1%
inhibition at 10 µM [15]: -29%
inhibition at 10 µM [16]: 7%
inhibition at 10 µM [17]: -1%
inhibition at 10 µM [18]: -15%
inhibition at 10 µM [19]: 11%
inhibition at 10 µM [20]: 1%
inhibition at 10 µM [21]: -7%
inhibition at 10 µM [22]: 1%
inhibition at 10 µM [23]: 5%
inhibition at 10 µM [24]: 9%
inhibition at 10 µM [25]: 5%
inhibition at 10 µM [26]: -6%
inhibition at 10 µM [27]: 2%
inhibition at 10 µM [28]: -10%
inhibition at 10 µM [29]: 21%
inhibition at 10 µM [30]: 9%
inhibition at 10 µM [31]: -4%
inhibition at 10 µM [32]: -7%
inhibition at 10 µM [33]: -7%
inhibition at 10 µM [34]: -3%
inhibition at 10 µM [35]: 7%
inhibition at 10 µM [36]: 0%
inhibition at 10 µM [37]: 5%

IC50 [38]: 535 nM
Compound: Nc1nc2c(c(=O)[nH]1)N1C(=O)N(c3ccc(C(=O)N[C@@H](CCC(=O)O)C(=O)O)cc3)CC1CN2 (some centres unmarked) [LY345899]
